Test results as given in US20130035326A1 (AMBIT BIOSCIENCES CORPORATION, priority 2009, published 2013).

How the values were obtained:
FLT3 kinase = molecular target: T1, FLT3 kinase (Homo sapiens, UniProt P36888); experiment: Competition binding assay, FLT3 Kd
T1 construct: made in house; host or cells: T7 phage display or HEK-293 cells
T1 sequence (P36888 27-993): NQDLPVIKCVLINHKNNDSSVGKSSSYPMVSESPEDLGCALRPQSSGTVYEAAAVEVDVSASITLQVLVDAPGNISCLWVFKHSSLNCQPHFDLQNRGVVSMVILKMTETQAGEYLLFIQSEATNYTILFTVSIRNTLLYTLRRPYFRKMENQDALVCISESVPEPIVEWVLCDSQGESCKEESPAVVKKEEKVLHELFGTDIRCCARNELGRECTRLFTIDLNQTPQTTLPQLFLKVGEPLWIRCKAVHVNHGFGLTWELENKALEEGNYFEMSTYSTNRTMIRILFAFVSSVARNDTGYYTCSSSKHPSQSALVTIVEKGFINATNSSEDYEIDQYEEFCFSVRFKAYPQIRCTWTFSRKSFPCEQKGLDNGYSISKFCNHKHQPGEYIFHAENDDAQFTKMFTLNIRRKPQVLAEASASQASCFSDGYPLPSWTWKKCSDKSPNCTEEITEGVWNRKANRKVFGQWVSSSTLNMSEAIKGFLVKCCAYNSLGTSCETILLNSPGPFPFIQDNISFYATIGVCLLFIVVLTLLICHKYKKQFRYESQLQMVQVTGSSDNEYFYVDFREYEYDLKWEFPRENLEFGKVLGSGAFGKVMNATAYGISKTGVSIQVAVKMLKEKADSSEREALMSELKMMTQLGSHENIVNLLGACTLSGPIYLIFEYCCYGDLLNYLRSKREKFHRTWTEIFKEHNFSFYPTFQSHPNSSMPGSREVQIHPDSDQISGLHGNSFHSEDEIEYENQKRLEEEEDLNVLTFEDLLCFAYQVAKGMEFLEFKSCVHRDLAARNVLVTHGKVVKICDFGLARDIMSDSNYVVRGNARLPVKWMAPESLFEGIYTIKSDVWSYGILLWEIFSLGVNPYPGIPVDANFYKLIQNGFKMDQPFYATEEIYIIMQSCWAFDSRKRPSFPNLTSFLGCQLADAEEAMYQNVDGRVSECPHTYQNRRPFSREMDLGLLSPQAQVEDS
Method: (§1) In certain embodiments, competition binding assays were performed as described in Fabian et al., Nature Biotechnology 2005, 23,329-336.
(§2) Competition binding assays used herein were developed, validated and performed as described in Fabian et al., Nature Biotechnology 2005, 23,329-336. Kinases were produced as fusions to T7 phage (See, Fabian et al. or WO04/015142) or alternatively, the kinases were expressed in HEK-293 cells and subsequently tagged with DNA for PCR detection (See, WO08/005,310). For the binding assays, streptavidin-coated magnetic beads were treated with biotinylated affinity ligands for 30 min at room temperature to generate affinity resins. The liganded beads were blocked with excess biotin and washed with blocking buffer (SeaBlock (Pierce), 1% BSA, 0.05% Tween 20, 1 mM DTT) to remove unbound ligand and to reduce non-specific binding. Binding reactions were assembled by combining kinase, liganded affinity beads, and test compounds in 1× binding buffer (20% SeaBlock, 0.17×PBS, 0.05% Tween 20, 6 mM DTT). Test compounds were prepared as 100× stocks in DMSO and diluted into the aqueous environment. Kds were determined using an eleven point threefold serial dilutions. DMSO or control compounds were was added to control assays lacking a test compound. Primary screen assays were performed in polypropylene 384-well plates in a final volume of 20-40 μL, while Kd determinations were performed in polystyrene 96-well plates in a final volume of 135 μL. The assay plates were incubated at room temperature with shaking for 1 hour to allow the binding reactions to reach equilibrium, and the affinity beads were washed extensively with wash buffer (1×PBS, 0.05% Tween 20) to remove unbound protein. The beads were then resuspended in elution buffer (1×PBS, 0.05% Tween 20, 0.5 μM non-biotinylated affinity ligand) and incubated at room temperature with shaking for 30 min. The kinase concentration in the eluates was measured by quantitative PCR.

MV4-11 cells = experiment: MV4-11 cell proliferation assay (Alamar Blue); assay type: cell-based; details: Homo sapiens, MV4-11, 72 h, 3 days incubation
Method: The compounds disclosed herein were tested in an MV4-11 cell proliferation assay to determine their cellular potency against Flt3. MV4-11 cells carry ITD mutation within juxtamembrane domain of Flt3 kinase which renders the kinase constitutively active. […] This assay measures the potency of compounds as Flt3 inhibitors by measuring the reduction of Alamar Blue reagent by viable cells.
MV4-11 cells were grown in an incubator at 37° C. under 5% CO2 in Iscove's media (Celgro) with 10% FBS. The cell density was kept between 1e5 and 8e5 cells/mL.
On day one of the experiment, cells were harvested and spun at 500 g for 5 min at 4° C., the supernatant aspirated and the cells resuspended in Iscove's media with 0.5% FBS. Cell density was maintained at 7.5e5 to achieve maximum viability of the cells. The resuspended cells were incubated at 37° C. in 5% CO2 overnight.
On day two of the experiment, cells were diluted to 6.4e5/mL with Iscove's media with 0.5% FBS. 100 μL of the cell suspension (64,000 cells) were aliquoted into each well of a 96-well TC-treated plate. Compounds were added at 9 different concentrations, with half-log intervals alongside a control reference compound serving as a positive control. Final DMSO concentration was kept at 0.5% and final volume at 200 μL. The cells were then incubated at 37° C. under 5% CO2 for 3 days.
On day five of the experiment, 40 μL of Alamar Blue reagent was added to each well and the mixture was allowed to incubate for 3 hours. Alamar Blue fluorescence was measured using SoftMax Pro software at 560 nm (excitation) and 590 nm (emission). IC50s were generated as an average of duplicates and represents the concentration of test compound that achieves 50% inhibition of cellular proliferation compared to negative control.

CSF-1R kinase = molecular target: T2, CSF-1R kinase (Homo sapiens, UniProt P07333); experiment: Competition binding assay, CSF-1R Kd
T2 construct: made in house; host or cells: T7 phage display or HEK-293 cells
T2 sequence (P07333 20-972): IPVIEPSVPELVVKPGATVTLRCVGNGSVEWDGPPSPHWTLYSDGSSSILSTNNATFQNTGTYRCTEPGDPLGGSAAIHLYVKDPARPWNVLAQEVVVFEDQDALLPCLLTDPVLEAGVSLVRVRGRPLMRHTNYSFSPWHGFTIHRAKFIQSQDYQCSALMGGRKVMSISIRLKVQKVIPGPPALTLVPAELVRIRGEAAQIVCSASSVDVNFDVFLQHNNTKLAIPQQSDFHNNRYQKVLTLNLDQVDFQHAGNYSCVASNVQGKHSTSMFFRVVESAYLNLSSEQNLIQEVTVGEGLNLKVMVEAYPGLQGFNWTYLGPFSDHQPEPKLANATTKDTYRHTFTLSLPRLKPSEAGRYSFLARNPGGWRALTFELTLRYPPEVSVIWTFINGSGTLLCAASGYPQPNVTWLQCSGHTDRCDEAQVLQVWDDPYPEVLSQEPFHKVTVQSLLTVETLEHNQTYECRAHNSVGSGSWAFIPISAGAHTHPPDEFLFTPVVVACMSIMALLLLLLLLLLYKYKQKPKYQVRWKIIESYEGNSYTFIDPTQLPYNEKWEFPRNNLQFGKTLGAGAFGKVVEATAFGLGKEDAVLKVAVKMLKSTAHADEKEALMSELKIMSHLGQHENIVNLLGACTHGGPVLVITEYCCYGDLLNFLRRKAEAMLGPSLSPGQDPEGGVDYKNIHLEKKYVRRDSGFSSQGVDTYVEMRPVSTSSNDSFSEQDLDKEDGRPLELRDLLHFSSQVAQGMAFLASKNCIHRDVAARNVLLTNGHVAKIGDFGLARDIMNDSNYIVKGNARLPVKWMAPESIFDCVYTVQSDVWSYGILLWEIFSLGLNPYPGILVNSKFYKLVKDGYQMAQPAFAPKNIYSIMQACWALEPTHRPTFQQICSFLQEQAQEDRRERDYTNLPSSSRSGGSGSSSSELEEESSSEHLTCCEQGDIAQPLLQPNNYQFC
Method: as §1, §2

KIT kinase = molecular target: T3, KIT kinase (Homo sapiens, UniProt P10721); experiment: Competition binding assay, KIT Kd
T3 construct: made in house; host or cells: T7 phage display or HEK-293 cells
T3 sequence (P10721 26-976): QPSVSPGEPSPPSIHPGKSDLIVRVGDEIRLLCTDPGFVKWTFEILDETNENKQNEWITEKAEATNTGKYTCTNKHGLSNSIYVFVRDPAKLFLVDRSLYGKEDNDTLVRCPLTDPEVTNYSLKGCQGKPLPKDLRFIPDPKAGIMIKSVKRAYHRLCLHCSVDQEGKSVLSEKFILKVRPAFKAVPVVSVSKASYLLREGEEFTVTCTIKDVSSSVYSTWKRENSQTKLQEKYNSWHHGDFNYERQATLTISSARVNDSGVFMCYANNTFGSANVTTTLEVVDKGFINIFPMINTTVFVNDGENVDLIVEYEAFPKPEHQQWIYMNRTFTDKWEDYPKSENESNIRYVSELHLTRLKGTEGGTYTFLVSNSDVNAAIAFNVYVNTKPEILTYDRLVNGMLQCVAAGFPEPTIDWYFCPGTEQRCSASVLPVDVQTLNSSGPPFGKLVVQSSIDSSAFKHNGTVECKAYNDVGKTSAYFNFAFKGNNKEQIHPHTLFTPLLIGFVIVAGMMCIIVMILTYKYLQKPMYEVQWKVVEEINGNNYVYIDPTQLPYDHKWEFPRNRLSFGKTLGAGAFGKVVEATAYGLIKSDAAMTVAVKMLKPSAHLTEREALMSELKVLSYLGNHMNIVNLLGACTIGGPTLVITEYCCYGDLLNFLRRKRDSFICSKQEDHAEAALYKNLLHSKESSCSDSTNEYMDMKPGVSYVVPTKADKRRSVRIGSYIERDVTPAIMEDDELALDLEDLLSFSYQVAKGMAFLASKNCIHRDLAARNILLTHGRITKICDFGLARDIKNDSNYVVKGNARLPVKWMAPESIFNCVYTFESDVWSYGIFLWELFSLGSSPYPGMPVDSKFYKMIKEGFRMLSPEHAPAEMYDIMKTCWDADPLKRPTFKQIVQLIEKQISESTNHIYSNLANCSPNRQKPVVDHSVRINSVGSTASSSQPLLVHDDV
Method: as §1, §2

Compound	Kd (FLT3 kinase) [µM]	IC50 (MV4-11 cells) [µM]	Kd (CSF-1R kinase) [µM]	Kd (KIT kinase) [µM]
CC(C(=O)Nc1cc(C(C)(C)C)on1)c1ccc(-c2ccc(N)nc2)cc1 (racemic) [Example 71, 2-(4-(6-aminopyridin-3-yl)phenyl)-N-(5-tert-butylisoxazol-3-yl) propanamide]	0.001 to 0.01	0.01 to 0.1	0.01 to 0.1	0.01 to 0.1
CC(C)(C)c1cc(NC(=O)Nc2ccc(-c3ccc(NCCN4CCCCC4)nc3)cc2F)no1 [Example 27, 1-(5-tert-butylisoxazol-3-yl)-3-(2-fluoro-4-(6-(2-(piperidin-1-yl)ethylamino)pyridin-3-yl)phenyl)urea]	≤ 0.001	0.01 to 0.1	≤ 0.01	≤ 0.001
CC(C)(C)c1cc(NC(=O)Nc2ccc(-c3ccc(NCCCN4CCOCC4)nc3)cc2)no1 [Example 28, 1-(5-tert-butylisoxazol-3-yl)-3-(4-(6-(3-morpholinopropylamino)pyridin-3-yl)phenyl)urea]	≤ 0.001	≤ 0.001	≤ 0.01	≤ 0.001
CN1CCCC1CCNc1ccc(-c2ccc(NC(=O)Nc3cc(C(C)(C)C)on3)cc2)cn1 (centres unmarked) [Example 29, 1-(5-tert-butylisoxazol-3-yl)-3-(4-(6-(2-(1-methylpyrrolidin-2-yl)ethylamino)pyridin-3-yl)phenyl)urea]	≤ 0.001	0.001 to 0.01	≤ 0.01	≤ 0.001
CCN1CCCC1CNc1ccc(-c2ccc(NC(=O)Nc3cc(C(C)(C)C)on3)cc2)cn1 (centres unmarked) [Example 30, 1-(5-tert-butylisoxazol-3-yl)-3-(4-(6-((1-ethylpyrrolidin-2-yl)methylamino)pyridin-3-yl)phenyl)urea]	0.001 to 0.01	0.01 to 0.1	0.01 to 0.1	≤ 0.001
CN(C(=O)Nc1cc(C(C)(C)C)on1)c1ccc(-c2ccc(N)nc2)cc1 [Example 31, 1-(4-(6-aminopyridin-3-yl)phenyl)-3-(5-tert-butylisoxazol-3-yl)-1-methylurea]	≤ 0.001	0.01 to 0.1	≤ 0.01	≤ 0.001
CC(C)(F)c1cc(NC(=O)Nc2ccc(-c3ccc(N)nc3)cc2)on1 [Example 32, 5-(4-(3-(3-(2-fluoropropan-2-yl)isoxazol-5-yl)ureido)phenyl)pyridin-2-aminium methanesulfonate]	≤ 0.001	0.001 to 0.01	≤ 0.01	≤ 0.001
Nc1ccc(-c2ccc(NC(=O)Nc3cc(C4(C(F)(F)F)CC4)on3)cc2)cn1 [Example 33, 5-(4-(3-(5-(1-(trifluoromethyl)cyclopropyl)isoxazol-3-yl)ureido)phenyl)pyridin-2-aminium methanesulfonate]	≤ 0.001	≤ 0.001	≤ 0.01	≤ 0.001
CC(CF)(CF)c1cc(NC(=O)Nc2ccc(-c3ccc(N)nc3)cc2)no1 [Example 34, 5-(4-(3-(5-(1,3-difluoro-2-methylpropan-2-yl)isoxazol-3-yl)ureido)phenyl)pyridin-2-aminium methanesulfonate]	≤ 0.001	≤ 0.001	≤ 0.01	≤ 0.001
CC(C)(c1cc(NC(=O)Nc2ccc(-c3ccc(N)nc3)cc2)no1)C(F)(F)F [Example 35, methanesulfonate]	≤ 0.001	≤ 0.001	≤ 0.01	0.001 to 0.01
O=C(Nc1ccc(-c2ccc(NCCN3CCOCC3)nc2)cc1)Nc1cc(C2(C(F)(F)F)CC2)on1 [Example 36, 4-(2-(5-(4-(3-(5-(1-(trifluoromethyl)cyclopropyl)isoxazol-3-yl)ureido)phenyl)pyridin-2-ylamino)ethyl)morpholin-4-ium methanesulfonate]	≤ 0.001	0.001 to 0.01	≤ 0.01	≤ 0.001
CC(CF)(CF)c1cc(NC(=O)Nc2ccc(-c3ccc(NCCN4CCOCC4)nc3)cc2)no1 [Example 37, 4-(2-(5-(4-(3-(5-(1,3-difluoro-2-methylpropan-2-yl)isoxazol-3-yl)ureido)phenyl)pyridin-2-ylamino)ethyl)morpholin-4-ium methanesulfonate]	≤ 0.001	0.001 to 0.01	≤ 0.01	≤ 0.001
CC(C)(F)c1cc(NC(=O)Nc2ccc(-c3ccc(NCCN4CCOCC4)nc3)cc2)on1 [Example 38, 4,4-(2-(5-(4-(3-(3-(2-fluoropropan-2-yl)isoxazol-5-yl)ureido)phenyl)pyridin-2-ylamino)ethyl)morpholin-4-ium methanesulfonate]	0.001 to 0.01	0.01 to 0.1	≤ 0.01	≤ 0.001
CC(C)(c1cc(NC(=O)Nc2ccc(-c3ccc(NCCN4CCOCC4)nc3)cc2)no1)C(F)(F)F [Example 39, 4-(2-(5-(4-(3-(5-(1,1,1-trifluoro-2-methylpropan-2-yl)isoxazol-3-yl)ureido)phenyl)pyridin-2-ylamino)ethyl)morpholin-4-ium methanesulfonate]	≤ 0.001	0.001 to 0.01	≤ 0.01	0.001 to 0.01
Nc1ccc(-c2ccc(NC(=O)Nc3cc(C4(C(F)(F)F)CC4)on3)nc2)cn1 [Example 40, 1-(6′-amino-3,3′-bipyridin-6-yl)-3-(5-(1-(trifluoromethyl)cyclopropyl)isoxazol-3-yl)urea]	≤ 0.001	0.001 to 0.01	≤ 0.01	≤ 0.001
CC(CF)(CF)c1cc(NC(=O)Nc2ccc(-c3ccc(N)nc3)cn2)no1 [Example 41, 1-(6′-amino-3,3′-bipyridin-6-yl)-3-(5-(1,3-difluoro-2-methylpropan-2-yl)isoxazol-3-yl)urea]	≤ 0.001	0.001 to 0.01	≤ 0.01	≤ 0.001
CS(=O)(=O)CCNc1ccc(-c2ccc(CC(=O)Nc3cc(C4(C(F)(F)F)CC4)on3)cc2)cn1 [Example 188]		≤ 0.001	0.01 to 0.1	0.001 to 0.01
Nc1cc(F)c(-c2ccc(CC(=O)Nc3cc(C4(C(F)(F)F)CC4)on3)cc2)cn1 [Example 189]		≤ 0.001	≤ 0.01	0.001 to 0.01
CC(C)(C)c1cc(NC(=O)Cc2ccc(-c3cnc4ccc(=O)[nH]c4c3)cc2)no1 [Example 191]		0.001 to 0.01		
